# According to patent publication US8779202B2, “Compositions and methods for the treatment of giardiasis” (Georgetown University, priority 2009, dated 2014):
# Tests used:
# Giardia parasites = assay: Video microscopy of parasite morphology and dynamics; type: cell-based, Giardia lamblia; conditions: for Observed Parasite Morphology and Dynamics: Table I, video microscopy at 50, 15, 10, 5 and 1 μM
# Method: A series of video microscopy studies were undertaken to examine the effect of the compounds on parasite morphology and dynamics. Short 1 minute videos of parasite behavior were recorded using DIC optics on a Zeiss AXIOPLAN microscope (Carl Zeiss Microimaging GmbH, Germany) using a Photometrics CCD camera (Photometrics, Inc.; Tucson, Ariz.). Recordings were made on at least three separate occasions at compound concentrations of 50 μM, 15 μM, 10 μM, 5 μM, and 1 μM to allow comparison to the dose-response curves in the attachment assay. Four broad categories of compound action were found (see Table I).
# [1] = tested on: Giardia parasite cultures; assay: Reversibility of compound effect on Giardia viability and attachment; type: cell-based, Giardia lamblia; conditions: 15 μM, 30 minutes-2 hours in PBS at 37° C., wash, 48 hours in growth media
# Method: Parasite cultures were treated for 30 minutes—2 hours with 15 μM of Compounds I-16, III-1, IV-1, V-1, VI-1, VII-1, and VIII-2A in PBS at 37° C. Parasites were then washed with warm PBS to remove compounds, and were placed in normal Giardia growth media for an additional 48 hours. […] All comparisons were made to cultures of untreated Giardia.
Compound,effect on parasite morphology and activity (Giardia parasites),Observed Parasite Morphology and Dynamics (Giardia parasites),reversibility of effect on parasite attachment and viability [1]
C[C@H]1CC[C@@H]2[C@@H](C)[C@H]3[C@H](C[C@H]4[C@@H]5CC=C6C[C@@H](O)CC[C@]6(C)[C@H]5CC[C@]34C)N2C1 [Compound VIII-2A],"no observable effect on parasite morphology and activity, but did significantly reduce attachment","Parasites appear normal in morphology and activity,",largely reversible
Nogalamycin [Compound VII-1],"no observable effect on Giardia morphology, but did cause flagellar paralysis","Parasites display disrupted peripheral morphology,",largely reversible
CC(Br)C(=O)c1ccc2cc(Br)c3ccccc3c2c1 (centres unmarked) [Compound III-1],profoundly disrupted parasite morphology or simply destroyed the parasites,Parasites display a profoundly disrupted morphology,irreversible
Nc1nc(SCc2ccccc2[N+](=O)[O-])c2[nH]cnc2n1 [Compound V-1],"disrupted peripheral morphology, resulting either in loss of overall shape or localized membrane blebbing",–,largely reversible
Cc1c(Cl)cc(C(C)(C)C)c(O)c1Cc1c(C)c(Cl)cc(C(C)(C)C)c1O [Compound VI-1],"disrupted peripheral morphology, resulting either in loss of overall shape or localized membrane blebbing","Parasites display disrupted peripheral morphology,",largely reversible
Oc1ccc2ccccc2c1CN(Cc1c(O)ccc2ccccc12)C1CCCCC1 [Compound I-16],"no observable effect on parasite morphology and activity, but did significantly reduce attachment","Parasites appear normal in morphology and activity,",largely reversible
O=C1C=C(N2CCN(c3ccccn3)CC2)C(=O)c2c(O)ccc(O)c21 [Compound IV-1],profoundly disrupted parasite morphology or simply destroyed the parasites,Parasites display a profoundly disrupted morphology,irreversible
